Reference: patent US12616713B2, “Methods for enhancing vascular density” (priority 2016, dated 2026)

Assays:
SIRT1-iKO and WT mice = experiment: Hindlimb ischemia model; format: in vivo, mouse; settings: 8-month old mice, femoral ligation, NMN 20 days; SIRT1-dependent
Description: The effect of NMN in ischemia-induced vessel formation was assessed in a murine model of hindlimb ischemia using SIRT1-iKO and WT mice according to the published protocol (Limbourg et al., 2009, Nat Protoc 4, 1737-1746). Treatment of animals with NMN (500 mg/kg/day) via drinking water started one week prior to femoral ligation and was continued until the end of the experiment. The blood flow in the ischemic limb was measured using contrast-enhanced ultrasound imaging, 20 days after the surgery.
Mice were anesthetized with isoflurane (1.5-2%, 500 ml 02/min), hindlimbs were shaved using depilatory cream and a 27-gauge catheter was placed into each mouse's tail and kept in place with surgical tape. […] A cine loop was recorded at a frame rate of 20 frames/s for a total of 1,000 frames. […] The difference in maximum and minimum video intensity was determined as the peak enhancement and was the variable used to determine muscle perfusion.
Freshly isolated whole quadriceps and gastrocnemius muscle samples were mounted in OCT compound (Tissue-Tek), placed in an isopentane bath and slowly cooled in liquid nitrogen. […] Images were acquired using a confocal fluorescence microscope (Nikon A1). Quantification of capillaries and capillary density were performed using ImageJ software. […]

C57BL/6J mice = experiment: Muscle capillaries in mice with lentiviral EC-specific SIRT1 knockdown; format: in vivo, mouse; settings: 20-month old mice, SIRT1 miRNA #5 lentivirus, NMN 400, NaHS 20, GYY4137 20 mg/kg/day, four weeks
Description: Lentiviral particles were concentrated by ultracentrifugation (cite) and viral titer was determined by (cite kit) and injected at 1×10^10 TU/mouse carrying SIRT1 or NT miRNAs to 20-mo old WT C57BL/6J mice (NIA) via retro-orbital injection. Mice received two consecutive injections behind alternate eyes two days apart. 10 days post final injection, mice were assigned to different treatment groups.
Freshly isolated whole quadriceps and gastrocnemius muscle samples were mounted in OCT compound (Tissue-Tek), placed in an isopentane bath and slowly cooled in liquid nitrogen. Transverse sections at 20 μm-thickness were sectioned on a cryostat (Leica). The sections were fixed in pre-cooled acetone (−20° C.) for 10 min and washed with PBS. Slides were then blocked in normal goat serum and 5% Blocking Reagent (PerkinElmer) in PBST (PBS with 0.1% Triton-X) for 1 h at room temperature, and then incubated with anti-CD31 (ab56299, Abcam) and anti-Laminin (L9393, Sigma), GFP (ab6556, Abcam) or SIRT1 (HPA006295, Sigma) antibodies diluted in blocking buffer overnight at 4° C. […] Images were acquired using a confocal fluorescence microscope (Nikon A1). Quantification of capillaries and capillary density were performed using ImageJ software. […]

[1] = system: MLECs from WT and ESKO mice; experiment: Apoptosis of serum-starved MLECs (Annexin V/PI); format: cell-based, mouse; settings: serum-starved overnight, SIRT1-dependent
Description: FIG. 38 is (A) a graph showing quantification of the relative cell number (n=12) of HUVECs incubated with PBS or NMN (0.5 mM) for 48 h in complete growth medium and cell number determined using flow cytometry. (B) a graph showing the number of apoptotic cells (Annexin V+/PI−) (n=12) when MLECs from WT and ESKO mice were serum-starved overnight, then assessed for apoptosis by Annexin V/PI staining and analyzed using flow cytometry. Data are expressed as mean±SEM. *p<0.05, **p<0.005, ***p<0.0005, ^δp<0.00005 by Student's t test (A), or two-way (B) ANOVA with Bonferroni's Multiple Comparisons Tests. (C) a schematic diagram of a model of how SIRT1 promotes sprouting angiogenesis. […]
HUVECs were treated with PBS (vehicle), NaHS (100 μM), NMN (500 μM) or NMN+NaHS for 6 h, followed by exposure to H2O2 (600 μM) for another 4 h. After treatments, the number of apoptotic cells was determined using Annexin V-FITC apoptosis detection kit (eBioscience) as per manufacturer's instructions. […] After mixing gently, the fluorescence intensity was detected with a flow cytometry (FACSCanto II Analyzer, BD Biosciences) at emission at 530 nm and 575 nm and excitation at 488 nm. Annexin-V and PI staining were detected with a flow cytometry (FACSCanto II Analyzer, BD Biosciences) at emission at 530 nm and 575 nm and excitation at 488 run.

[2] = system: human aortic endothelial cells (HAECs); experiment: Tube formation assay, HAECs; format: cell-based
Description: Formation of tube networks was assessed as described before (Borradaile and Pickering, 2009, Aging Cell 8, 100-112). ECs were seeded at 10,000 cells per well in a 24-well plate (Corning) coated with 150 μL Cultrex reduced growth factor basement membrane extract (Trevigen). The cells were supplemented with C2C12 CM or EBM-2 medium containing VEGF (30 ng/mL) or FGF (30 ng/mL). […] Following an 18 h-incubation, resulting tube networks were analyzed by light microscopy (Nikon Eclipse TiE). For tube formation assays with H2O2 treatment, cells were incubated with 150 μM H2O2 for 1 h before seeding and imaged after 10 h-incubation. The number of branch points and total length of tubule networks were quantified by ImageJ software.

[3] = NMN and VEGF (30 ng/mL) cotreatment of HAECs, compared to VEGF alone

## NC(=O)c1ccc[n+]([C@@H]2O[C@H](COP(=O)([O-])O)[C@@H](O)[C@H]2O)c1 [NMN, nicotinamide mononucleotide]
SIRT1-iKO and WT mice
  capillary density of ischemic gastrocnemius: restored
  relative blood volume (peak enhancement) of ischemic limb: restored
C57BL/6J mice
  ability to increase vascularization in SIRT1 knockdown mice: blocked in the SIRT1 knockdown mice
[1]
  apoptosis in ECs (Annexin V+/PI-): reduced apoptosis
[2]; NMN 10 μM, 100 μM or 500 μM versus PBS
  number of branch points and total length of tubes: steadily increased
[2]; [3]
  increase in number of branch points: 32%
  increase in tubule length: 15%
[2]; NMN itself, without VEGF
  increase in number of branch points: 25%
[2]; NT or SIRT1 siRNA, VEGF 30 ng/mL, NMN 0.5 mM
  ability of NMN to stimulate tube formation, dependence on SIRT1: SIRT1-dependent
[2]; Scr or SIRT1 siRNA, NMN 500 μM
  effects of NMN on VEGF-mediated tube formation after knockdown of SIRT1: completely blocked by knockdown of SIRT1
[2]; T3 or T6 siRNA, VEGF 30 ng/mL, +/- NMN
  VEGF-mediated tube formation after knockdown of SIRT3 and SIRT6: partially rescued
[2]; time-lapse videos, extended 18 h period
  disintegration of tubes: prevented the disintegration of tubes
